Measurements: ChEMBL document CHEMBL5143593 (Eur J Med Chem, 2022)

Key:
[1] = Cytotoxicity against CHO-K1 cells measured after 24 hrs by MTT assay; type: toxicity, cell-based, Cricetulus griseus; settings: Chinese hamster
[2] = Permeability of compound at pH 7.4 by PAMPA assay
[3] = biological target: T1, 5-hydroxytryptamine receptor 3A (Cavia porcellus, UniProt O70212); test: Antagonist activity at 5-HT3 receptor in guinea-pig ileum assessed as inhibition of 5HT-induced contraction; type: tissue-based
T1 sequence (O70212 whole entry): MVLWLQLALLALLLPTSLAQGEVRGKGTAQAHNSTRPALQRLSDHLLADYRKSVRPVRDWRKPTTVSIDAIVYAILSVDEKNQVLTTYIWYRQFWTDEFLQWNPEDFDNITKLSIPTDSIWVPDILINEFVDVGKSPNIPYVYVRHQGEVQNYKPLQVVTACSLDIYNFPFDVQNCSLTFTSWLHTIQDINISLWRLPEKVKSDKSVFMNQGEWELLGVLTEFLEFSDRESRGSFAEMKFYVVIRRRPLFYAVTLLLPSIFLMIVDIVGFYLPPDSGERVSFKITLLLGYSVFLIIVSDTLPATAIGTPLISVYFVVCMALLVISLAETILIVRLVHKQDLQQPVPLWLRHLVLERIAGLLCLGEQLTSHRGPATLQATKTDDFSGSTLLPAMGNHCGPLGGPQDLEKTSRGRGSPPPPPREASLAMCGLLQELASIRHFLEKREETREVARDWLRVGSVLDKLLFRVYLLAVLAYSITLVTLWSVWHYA

[4] = biological target: 5-hydroxytryptamine receptor 2A (Homo sapiens, UniProt P28223); test: Displacement of [3H]-ketanserin from human 5-HT2A receptor expressed in CHO-K1 cells measured after 1.5 hrs by Microbeta plate reader method; type: cell-based
[5] = biological target: D(2) dopamine receptor (Homo sapiens, UniProt P14416); test: Displacement of [3H]-raclopride from human D2L receptor expressed in HEK293 cells measured after 1 hr by Microbeta plate reader method; type: cell-based
[6] = biological target: T2, 5-hydroxytryptamine receptor 3A (Homo sapiens) (UniProt P46098); test: Competitive binding affinity towards 5-HT3 receptor (unknown origin); settings: filed as antagonist
T2 sequence (whole entry): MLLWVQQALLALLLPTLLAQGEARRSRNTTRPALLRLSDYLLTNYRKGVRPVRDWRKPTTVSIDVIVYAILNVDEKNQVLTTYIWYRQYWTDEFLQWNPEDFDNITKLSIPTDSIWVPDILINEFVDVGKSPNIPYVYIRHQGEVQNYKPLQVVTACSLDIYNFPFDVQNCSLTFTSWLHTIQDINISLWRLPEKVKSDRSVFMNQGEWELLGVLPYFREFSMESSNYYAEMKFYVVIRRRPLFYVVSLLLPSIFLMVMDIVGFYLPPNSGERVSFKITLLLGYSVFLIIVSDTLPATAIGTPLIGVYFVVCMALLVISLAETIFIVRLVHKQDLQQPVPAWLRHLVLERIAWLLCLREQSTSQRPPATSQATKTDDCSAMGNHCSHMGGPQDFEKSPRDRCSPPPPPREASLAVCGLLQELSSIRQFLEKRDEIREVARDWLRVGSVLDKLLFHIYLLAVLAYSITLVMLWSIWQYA

[7] = biological target: 5-hydroxytryptamine receptor 7 (Homo sapiens, UniProt P34969); test: Displacement of [3H]-5-CT from human 5-HT7b receptor expressed in HEK293 cells measured after 1 hr by Microbeta plate reader method; type: cell-based
[8] = biological target: T3, 5-hydroxytryptamine receptor 1A (Homo sapiens, UniProt P08908); test: Displacement of [3H]-8-OH-DPAT from human 5-HT1A receptor expressed in HEK293 cells measured after 1 hr by Microbeta plate reader method; type: cell-based
T3 sequence (P08908 whole entry): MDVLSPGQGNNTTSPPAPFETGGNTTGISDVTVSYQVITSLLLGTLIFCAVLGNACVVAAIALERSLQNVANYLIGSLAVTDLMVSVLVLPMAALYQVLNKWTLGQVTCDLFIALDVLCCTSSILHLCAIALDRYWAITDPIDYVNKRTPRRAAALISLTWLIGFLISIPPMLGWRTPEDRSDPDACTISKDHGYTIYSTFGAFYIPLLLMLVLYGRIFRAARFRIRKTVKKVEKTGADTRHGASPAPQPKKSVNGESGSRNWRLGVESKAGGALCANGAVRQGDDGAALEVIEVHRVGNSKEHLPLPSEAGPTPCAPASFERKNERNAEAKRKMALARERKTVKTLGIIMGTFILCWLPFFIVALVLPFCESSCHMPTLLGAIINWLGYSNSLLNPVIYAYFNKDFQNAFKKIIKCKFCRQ

Chain of 5-hydroxytryptamine receptor 2A (P28223 whole entry): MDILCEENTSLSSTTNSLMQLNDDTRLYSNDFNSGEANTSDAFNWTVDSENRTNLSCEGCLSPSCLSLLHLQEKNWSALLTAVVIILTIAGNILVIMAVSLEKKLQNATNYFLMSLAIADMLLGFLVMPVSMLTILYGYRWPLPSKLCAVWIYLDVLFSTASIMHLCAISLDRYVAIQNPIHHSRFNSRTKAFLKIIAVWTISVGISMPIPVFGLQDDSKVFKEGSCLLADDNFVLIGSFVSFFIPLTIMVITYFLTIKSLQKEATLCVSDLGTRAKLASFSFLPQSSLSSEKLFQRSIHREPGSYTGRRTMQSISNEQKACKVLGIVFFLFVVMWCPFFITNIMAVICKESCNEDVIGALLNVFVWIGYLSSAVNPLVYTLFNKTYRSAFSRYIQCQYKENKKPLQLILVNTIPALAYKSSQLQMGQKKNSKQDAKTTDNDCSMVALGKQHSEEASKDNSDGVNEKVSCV
Chain of D(2) dopamine receptor (P14416 whole entry): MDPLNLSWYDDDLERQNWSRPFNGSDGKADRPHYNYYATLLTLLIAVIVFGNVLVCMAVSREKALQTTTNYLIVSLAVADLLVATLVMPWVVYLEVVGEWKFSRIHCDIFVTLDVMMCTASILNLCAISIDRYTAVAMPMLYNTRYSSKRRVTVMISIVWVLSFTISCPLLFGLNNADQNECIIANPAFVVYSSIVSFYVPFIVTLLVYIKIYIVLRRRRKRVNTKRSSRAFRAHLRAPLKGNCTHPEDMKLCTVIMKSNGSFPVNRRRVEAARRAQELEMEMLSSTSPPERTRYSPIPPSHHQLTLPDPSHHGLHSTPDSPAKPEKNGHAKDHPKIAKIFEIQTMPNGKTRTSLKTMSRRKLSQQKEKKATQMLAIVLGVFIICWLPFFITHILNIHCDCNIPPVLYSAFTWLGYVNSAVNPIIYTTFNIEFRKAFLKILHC
Chain of 5-hydroxytryptamine receptor 7 (P34969 whole entry): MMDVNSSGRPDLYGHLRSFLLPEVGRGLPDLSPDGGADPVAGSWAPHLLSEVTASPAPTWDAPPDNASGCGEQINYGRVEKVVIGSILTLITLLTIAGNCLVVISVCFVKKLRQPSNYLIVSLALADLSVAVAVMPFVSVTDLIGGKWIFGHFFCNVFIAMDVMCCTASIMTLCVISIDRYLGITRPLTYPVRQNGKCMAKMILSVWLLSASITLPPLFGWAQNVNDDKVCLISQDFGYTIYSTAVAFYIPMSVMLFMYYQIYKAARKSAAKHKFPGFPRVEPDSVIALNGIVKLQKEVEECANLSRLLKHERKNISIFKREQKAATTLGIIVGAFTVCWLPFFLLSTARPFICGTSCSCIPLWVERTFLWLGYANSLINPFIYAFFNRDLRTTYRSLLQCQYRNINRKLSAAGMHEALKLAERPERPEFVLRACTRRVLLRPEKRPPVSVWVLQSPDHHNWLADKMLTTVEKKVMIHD

pKb [6] | Ki [7] [µM] | Ki [8] [µM] | SMILES | IC50 at 24 h [1] [µM] | Papp [2] [×10⁻⁶ cm/s] | IC50 [3] [µM] | Ki [4] [µM] | Ki [5] [µM] | Kb ([3]; read-out: pA2 (converted)) [µM]
– | – | – | COc1ccc(N2CCN(CCCN3CCN(c4ncccc4C#N)CC3)CC2)cc1 | 360 | 24 | 3 | 40 | 1.5 | –
– | – | – | COc1ccc(N2CCN(CCCN3CCN(C(=O)c4ccccc4)CC3)CC2)cc1 | > 400 | 23 | > 10 | 30 | 5.5 | –
– | – | – | CN(C)CCCN1c2ccccc2Sc2ccc(Cl)cc21 [CHLORPROMAZINE] | – | 9.6 | – | – | – | –
– | – | – | Cn1nc(C(=O)N2CCN(CCN3CCN(c4cccc(Cl)c4Cl)CC3)CC2)c2ccccc21 | 45 | 6.8 | 1 | 1.8 | 0.13 | –
– | – | – | CN1CCN(C2=Nc3cc(Cl)ccc3Nc3ccccc32)CC1 [CLOZAPINE] | – | – | 110 | – | – | –
– | – | – | O=C1CCc2ccc(OCCCCN3CCN(C(=O)c4ccccn4)CC3)cc2N1 | 89 | 9.4 | > 10 | 6.9 | 0.009 | –
– | – | – | COc1ccccc1N1CCN(CCN2CCN(C(=O)c3nn(C)c4ccccc34)CC2)CC1 | 780 | 13 | 3 | 8.3 | 0.63 | –
– | – | – | CN1CCN(c2nc3ncccc3cc2C#N)CC1 | – | – | – | – | – | 0.0398
– | – | – | O=C(c1ccccc1)N1CCN(CCCN2CCN(c3cccc(Cl)c3Cl)CC2)CC1 | 110 | 23 | > 3 | 1.7 | 0.12 | –
7.36 | > 1 | > 10 | Cc1nccn1CC1CCc2c(c3ccccc3n2C)C1=O (stereo unspecified) [ONDANSETRON] | – | – | – | – | > 10 | –
– | – | – | N#Cc1cccnc1N1CCN(CCCCOc2ccc3c(c2)NC(=O)CC3)CC1 | 1000 | 12 | – | 7.4 | 2.1 | –
– | – | – | N#Cc1cccnc1N1CCN(CCN2CCN(c3cccc(Cl)c3Cl)CC2)CC1 | 220 | 7.9 | 1 | 1.3 | 0.21 | –
